Results reported in patent publication US8426620B2, “Production methods of furan fatty acids” (Kyungpook National University Industry-Academic Cooperation …, priority 2011, dated 2013).
Entries after “also recorded” stand apart in the source; their conditions may differ.

Assay: DPPH radical scavenging (antioxidant) assay
Conditions: for radical scavenging activity (in words): DPPH assay, up to 100 μg/mL, FIG. 8
Protocol: Antioxidant activity was analyzed using 2,2-Diphenyl-1-picryhydrazyl (DPPH) assay according to the reports (22). Briefly, 50 μl of sample solution in DMSO was added to 200 μl of 200 μM DPPH radical solution in a 96-well plate. L-ascorbic acid and α-Tocopherol were used as positive controls. After 30 min of incubation at 37° C., the absorbance at 515 nm was measured. DPPH free radical scavenging activities was calculated using the equation; radical scavenging activity (%)=[1−(Asample−Ablank)/(Acontrol−Ablank)]×100. DMSO was used as a control.

SMILES | radical scavenging activity (in words) | radical scavenging activity (highest concentration tested, 100 μg/mL, 30 min at 37° C., absorbance 515 nm)
CCCCCCCCc1ccc(CCCCCC(=O)O)o1 [7,10-EODA, 7,10-epoxy-octadeca-7,9-dienoic acid] | radical scavenging activity increasing in a dose-dependent manner; also recorded: increased dose-dependently | 23%
CCCCCCCC[C@H](O)/C=C/[C@@H](O)CCCCCC(=O)O [DOD, 7,10-dihydroxy-8(E)-octadecenoic acid, reference compound] | did not show any activity | 
